Source: US20090170886A1 (Pfizer Inc, priority 2005, published 2009)
Substitutions are numbered along the chain they refer to. Read-outs that look alike come from different tables or passages of the source.

Columns and labels:
[1] = biological target: T1, hAR (human androgen receptor, baculovirus/Sf9 generated extracts) (Homo sapiens, UniProt P10275); test: AR Binding Assay (competitive binding with 3H-DHT tracer); conditions: 1 nM 3H-DHT, one hour at 4° C., mean of multiple tests
T1 construct: made in house; host or cells: baculovirus/Sf9 insect cells (crude extract)
T1 sequence (P10275 1-920): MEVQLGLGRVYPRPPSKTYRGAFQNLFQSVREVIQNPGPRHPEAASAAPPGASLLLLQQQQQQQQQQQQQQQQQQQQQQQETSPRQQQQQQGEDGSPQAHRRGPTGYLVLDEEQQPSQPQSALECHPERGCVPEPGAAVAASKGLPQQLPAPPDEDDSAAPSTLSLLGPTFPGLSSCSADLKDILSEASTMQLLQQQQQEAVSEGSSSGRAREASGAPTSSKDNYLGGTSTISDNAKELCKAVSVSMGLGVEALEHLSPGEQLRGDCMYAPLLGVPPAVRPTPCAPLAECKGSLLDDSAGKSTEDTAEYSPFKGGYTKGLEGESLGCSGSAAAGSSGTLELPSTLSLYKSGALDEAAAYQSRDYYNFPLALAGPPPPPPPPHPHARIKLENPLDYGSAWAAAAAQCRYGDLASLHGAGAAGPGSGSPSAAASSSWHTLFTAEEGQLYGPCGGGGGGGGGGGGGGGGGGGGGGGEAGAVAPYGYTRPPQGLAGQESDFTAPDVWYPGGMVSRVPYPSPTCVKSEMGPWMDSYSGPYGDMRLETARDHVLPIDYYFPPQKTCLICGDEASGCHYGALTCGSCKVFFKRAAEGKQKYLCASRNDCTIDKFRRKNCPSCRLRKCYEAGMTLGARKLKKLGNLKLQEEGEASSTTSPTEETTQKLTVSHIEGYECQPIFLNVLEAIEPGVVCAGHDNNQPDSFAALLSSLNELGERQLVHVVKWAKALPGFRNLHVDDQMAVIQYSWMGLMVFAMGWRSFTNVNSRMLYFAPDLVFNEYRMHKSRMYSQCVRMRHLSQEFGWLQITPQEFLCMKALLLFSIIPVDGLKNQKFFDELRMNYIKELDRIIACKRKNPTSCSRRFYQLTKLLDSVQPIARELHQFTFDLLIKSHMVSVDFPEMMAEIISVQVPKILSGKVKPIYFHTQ
Experimental: The compounds of Formula I have affinity for the androgen receptor. […] The description below describes how the assay was carried out.
Competitive binding analysis was performed on baculovirus/Sf9 generated hAR extracts in the presence or absence of different concentrations of test agent and a fixed concentration of ^3H-dihydrotestosterone (^3H-DHT) as tracer. This binding assay method is a modification of a protocol previously described (Liao S., et. al., J. Steroid Biochem., 20:11-17, 1984). Briefly, progressively decreasing concentrations of compounds are incubated in the presence of hAR extract (Chang et al., P.N.A.S., Vol. 89, pp. 5546-5950, 1992), hydroxylapatite, and 1 nM ^3H-DHT for one hour at 4° C. Subsequently, the binding reactions are washed three times to completely remove excess unbound ^3H-DHT. hAR bound ^3H-DHT levels are determined in the presence of compounds (i.e. competitive binding) and compared to levels bound when no competitor is present (i.e. maximum binding). Compound binding affinity to the hAR is expressed as the concentration of compound at which one half of the maximum binding is inhibited. Table II below provides the results that were obtained for selected compounds (reported data is the mean of multiple tests as shown below).

[2] = biological target: T2, androgen receptor in MDA-MB453-MMTV clone 54-19 cells (Homo sapiens, UniProt P10275); test: AR Antagonist Cell Assay (MMTV-luciferase reporter, DHT-induced); type: cell-based; conditions: MDA-MB453-MMTV clone 54-19, 100 pM DHT, 17 hr; mean of multiple tests
T2 sequence (P10275 1-920 Q868H): T1 sequence (P10275 1-920) with Q868H
Experimental: The compounds ability to antagonize the effects of androgen on the androgen receptor were determined in a whole cell assay as described immediately below.
Cell line: MDA-MB453-MMTV clone 54-19. This cell line is a stable transfected cell line with MDA-MB453 cell background (a human breast tumor cell line expressing androgen receptor). A MMTV minimal promoter containing ARE was first cloned in front of a firefly luciferase reporter gene. Then the cascade was cloned into transfection vector pUV120puro. Electroporation method was used for transfecting MDA-MB-453 cell. Puromycin resistant stable cell line was selected.
Culture medium: DMEM (high glucose, Gibco cat #: 11960-044), 10% FBS, and 1% L-glutamine
Plating medium: DMEM (phenol red free), 10% charcoal treated HyClone serum, 1% L-glutamine
Assay medium: DMEM (phenol red free), 1% charcoal treated HyClone serum, 1% L-glutamine, and 1% penicillin/streptomycin
3× luciferase buffer: 2% beta-mercaptoethanol, 0.6% ATP, 0.0135% luciferine in cell lysis buffer
Cells are maintained in culture medium, splitting cells when they reach 80-90% confluence. To test compounds, 10,000 cells/well are plated to opaque 96 cell culture plate in 100 ul/well plating medium, culture for overnight at 37° C. in cell culture incubator. Carefully remove plating medium, then add 80 ul/well of pre-warmed assay medium, add 10 ul/well testing compound (final concentration at) 1000 nM, 200 nM, 40 nM, 8 nM, 1.6 nM, and 0.32 nM), incubate at 37° C. for 30 minutes. Add 10 ul/well freshly prepared DHT (final concentration at 100 pM) to each well, incubate at 37° C. for 17 hr (overnight). Add 50 ul/well 3× luciferase buffer, incubate at room temperature for 5 minutes, then count on Luminometer. The fold induction over background by 100 pM DHT in the absence of testing compounds is standardized as 100% and experimental result is expressed as percentage of inhibition by testing compounds.
The results are reported as the mean of multiple tests as described below (the numbers of tests are indicated in the footnote). ND denotes that the compound was not tested.

[3] = hAR extract, read-out: AR Binding IC50

Row | SMILES | IC50 ([1]; AR Binding IC50, hAR extract) | IC50 [2] | IC50 [1, 3]
1 | CCC(Oc1ccc(C#N)c(C(F)(F)F)c1)c1ccccc1 (centres unmarked) [Example 48, 4-(1-Phenyl-propoxy)-2-trifluoromethyl-benzonitrile] | 0.038 µM | 0.345 µM | –
2 | N#Cc1ccc(OCc2ccccc2)cc1C(F)(F)F [Example 50, 4-Benzyloxy-2-trifluoromethyl-benzonitrile] | – | 0.508 µM | 0.174 µM
3 | Cc1cccc(C(C)Oc2ccc(C#N)c(C(F)(F)F)c2)c1 (centres unmarked) [Example 51, 4-(1-m-Tolyl-ethoxy)-2-trifluoromethyl-benzonitrile] | 0.108 µM | > 1 µM | –
4 | CC(Oc1ccc(C#N)c(C(F)(F)F)c1)c1ccccc1 (centres unmarked) [Example 53, 4-(1-Phenyl-ethoxy)-2-trifluoromethyl-benzonitrile] | 0.008 µM | 0.055 µM | –
5 | CCOc1ccccc1COc1ccc(C#N)c(C(F)(F)F)c1 [Example 55, 4-(2-Ethoxy-benzyloxy)-2-trifluoromethyl-benzonitrile] | – | > 1 µM | 0.125 µM
6 | C#CC(Oc1ccc(C#N)c(C(F)(F)F)c1)c1ccccc1 (centres unmarked) [Example 56, 4-(1-Phenyl-prop-2-ynyloxy)-2-trifluoromethyl-benzonitrile] | 0.074 µM | 0.02 µM | –
7 | CC(Oc1ccc(C#N)cc1Cl)c1ccccc1 (centres unmarked) [Example 57, 3-Chloro-4-(1-phenyl-ethoxy)-benzonitrile] | 0.24 µM | 0.086 µM | –
8 | CCC(C)(Oc1ccc(C#N)c(Cl)c1)c1ccccc1 (centres unmarked) [Example 58, 2-Chloro-4-(1-methyl-1-phenyl-propoxy)-benzonitrile] | – | > 1 µM | 0.162 µM
9 | N#Cc1ccc(OCc2ccccc2)cc1Cl [Example 59, 4-Benzyloxy-2-chloro-benzonitrile] | – | 0.108 µM | 0.038 µM
10 | Cc1cccc(C(C)Oc2ccc(C#N)c(Cl)c2)c1 (centres unmarked) [Example 60, 2-Chloro-4-(1-m-tolyl-ethoxy)-benzonitrile] | 0.074 µM | > 1 µM | –
11 | Cc1ccc(C)c(C(C)Oc2ccc(C#N)c(Cl)c2)c1 (centres unmarked) [Example 61, 2-Chloro-4-[1-(2,5-dimethyl-phenyl)-ethoxy]-benzonitrile] | 0.061 µM | > 1 µM | –
12 | Cc1ccccc1C(C)Oc1ccc(C#N)c(Cl)c1 (centres unmarked) [Example 62] | – | 0.464 µM | 0.052 µM
13 | Cc1cccc(COc2ccc(C#N)c(Cl)c2)c1 [Example 64, 2-Chloro-4-(3-methyl-benzyloxy)-benzonitrile] | 0.074 µM | > 1 µM | –
14 | Cc1ccccc1COc1ccc(C#N)c(Cl)c1 [Example 65, 2-Chloro-4-(2-methyl-benzyloxy)-benzonitrile] | – | > 1 µM | 0.129 µM
15 | N#Cc1ccc(OCc2cccc(O)c2)cc1Cl [Example 66, 2-Chloro-4-(3-hydroxy-benzyloxy)-benzonitrile] | 0.011 µM | 0.004 µM | –
16 | COc1ccccc1COc1ccc(C#N)c(Cl)c1 [Example 67, 2-Chloro-4-(2-methoxy-benzyloxy)-benzonitrile] | 0.099 µM | 0.166 µM | –
17 | CCOc1ccccc1COc1ccc(C#N)c(Cl)c1 [Example 68, 2-Chloro-4-(2-ethoxy-benzyloxy)-benzonitrile] | – | > 1 µM | 0.213 µM
18 | N#Cc1ccc(OCC2COc3ccccc3O2)cc1Cl (centres unmarked) [Example 69, 2-Chloro-4-(2,3-dihydro-benzo[1,4]dioxin-2-ylmethoxy)-benzonitrile] | – | > 1 µM | 0.108 µM
19 | CC(C)(Oc1ccc(C#N)c(Cl)c1)c1ccccc1 [Example 70, 2-Chloro-4-(1-methyl-1-phenyl-ethoxy)-benzonitrile] | 0.053 µM | > 1 µM | –
20 | CC(Oc1ccc(C#N)c(Cl)c1)c1ccccc1 (centres unmarked) [Example 71, 2-Chloro-4-(1-phenyl-ethoxy)-benzonitrile] | 0.013 µM | 0.008 µM | –
21 | COc1cc(OCCc2cccc(F)c2)ccc1C#N [Example 71B, 4-[2-(3-Fluoro-phenyl)-ethoxy]-2-methoxy-benzonitrile] | – | 0.0414 µM | 0.155 µM
22 | COc1cncc(C(C)Oc2ccc(C#N)c(C(F)(F)F)c2)c1 (centres unmarked) [Example 72, 4-[1-(5-Methoxypyridin-3-yl)ethoxy]-2-(trifluoromethyl)benzonitrile] | – | 0.441 µM | 0.203 µM
23 | CC(Oc1ccc(C#N)c(C(F)(F)F)c1)c1cncc(O)c1 (centres unmarked) [Example 73, 4-[1-(5-Hydroxypyridin-3-yl)ethoxy]-2-(trifluoromethyl)benzonitrile] | – | 0.07 µM | 0.11 µM
24 | N#Cc1ccc(CCOc2ccc(C#N)c(C(F)(F)F)c2)cc1 [Example 75, 4-[2-(4-Cyano-phenyl)-ethoxy]-2-trifluoromethyl-benzonitrile] | 0.343 µM | 0.055 µM | –
25 | COc1cccc(CCOc2ccc(C#N)c(C(F)(F)F)c2)c1 [Example 77, 4-[2-(3-Methoxy-phenyl)-ethoxy]-2-trifluoromethyl-benzonitrile] | 0.109 µM | 0.011 µM | –
